This is an account of results in US5272078A, “CDNA encoding the type I iodothyronine 5'deiodinase” (Brigham and Women's Hospital, priority 1992, dated 1993).

Test [1] has as its target T1, Human Type I 5'-Deiodinase (Homo sapiens, UniProt P49895).
T1 construct: expressed in transfected cells; host or cells: COS-7 cells (cell sonicate)
T1 sequence (P49895 1-249): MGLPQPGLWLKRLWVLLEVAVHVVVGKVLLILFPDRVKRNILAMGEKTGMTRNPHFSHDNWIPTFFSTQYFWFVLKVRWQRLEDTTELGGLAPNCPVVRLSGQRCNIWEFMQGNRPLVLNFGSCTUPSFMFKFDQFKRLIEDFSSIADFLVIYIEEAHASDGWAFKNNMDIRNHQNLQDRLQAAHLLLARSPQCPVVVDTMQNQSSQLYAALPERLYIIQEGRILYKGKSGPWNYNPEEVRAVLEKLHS
As to the kind of experiment: Kinetics of rT3 deiodination, enzyme transiently expressed in COS-7 cells. In kind it is biochemical.
Description: Cell sonicate protein concentration was approximately 12 mg ml^-1 by Biorad determination using gamma globulin as a standard.
Incubations were for 30 minutes at 37° C. and ^125 I was quantitated as previously described (Berry, et al., Mol. Endocrinol. 4:743-748 (1990)).

Test [2] concerns the target T2, Type I iodothyronine 5' deiodinase, TGA (selenocysteine-126) (Rattus norvegicus, UniProt P24389).
T2 construct: the full length protein terminates at the UAG codon at nucleotide 778; expressed in transfected cells; host or cells: JEG-3 human choriocarcinoma cells, vector CDM-8 (homogenates, microsomal fractions or sonicates)
T2 sequence (P24389 1-257): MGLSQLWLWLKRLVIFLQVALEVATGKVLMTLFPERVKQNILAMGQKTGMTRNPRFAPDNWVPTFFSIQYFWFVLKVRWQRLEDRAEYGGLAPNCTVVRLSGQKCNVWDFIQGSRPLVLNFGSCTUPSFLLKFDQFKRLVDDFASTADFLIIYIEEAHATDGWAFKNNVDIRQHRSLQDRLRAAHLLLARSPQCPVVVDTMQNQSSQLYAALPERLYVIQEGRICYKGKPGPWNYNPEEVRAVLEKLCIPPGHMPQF
The test is described as follows: Sensitivity to gold thioglucose, wild type (TGA) G21 cDNA, JEG cell sonicates. Type of test: biochemical. Conditions: for Deiodinase Activity of JEG cell sonicates: 10 mM DTT, 300 nM 125I rT3, 30 min. From the text: (§1) Wild type (TGA) or cysteine mutant (TGT) G21 cDNA in CDM-8 was transfected into JEG-3 as described in Example III. […] 1β-D-Thioglucose (5 μm) had no effect on enzyme activity. 1.

In the next test the target is T3, rat 5' deiodinase (Rattus norvegicus, UniProt P24389).
T3 construct: the full length protein terminates at the UAG codon at nucleotide 778; expressed in transfected cells, vector CDM-8; cell sonicate
T3 sequence (P24389 1-257): T2 sequence (P24389 1-257)
As to the kind of experiment: Affinity labelling with bromoacetyl T3, rat enzyme. Type of test: binding. How it is done: (§2) The final product in 2 ml of acidified 20% ethanol was diluted with 3 volumes of water and purified by chromatography on a column (2.5×0.8cm) of Sephadex LH-20 (Pharmacia). […] Densitometric quantitation of the autoradiographs was performed by a Molecular Dynamics computing densitometer (Sunnyvale, Calif.).

For test [3], the target named is T4, human 5' deiodinase (Homo sapiens, UniProt P49895).
T4 sequence (P49895 1-249): T1 sequence (P49895 1-249)
The test is described as follows: Affinity labelling with bromoacetyl T3, human enzyme. Type of test: binding. On the set-up: expressed in transfected cells; host or cells: COS-7 cells (cell sonicate). The procedure:
as §2

The next test deals with T5, Type I 5' deiodinase (Rattus norvegicus, UniProt P24389).
T5 construct: the full length protein terminates at the UAG codon at nucleotide 778; expressed in transfected cells; host or cells: JEG-3 human choriocarcinoma cells, vector CDM-8 (homogenates, microsomal fractions or sonicates)
T5 sequence (P24389 1-257): T2 sequence (P24389 1-257)
The test is described as follows: rT3 deiodination by clone G21 enzyme expressed in transfected JEG-3 cells. Type of test: biochemical. Conditions: for mode of inhibition: rT3 as substrate. From the text:
To verify that this clone encoded the Type I 5' deiodinase, it was expressed in JEG-3 human choriocarcinoma cells following DNA transfection.
To confirm that this clone encoded Type I 5' deiodinase, it was expressed in JEG-3 human choriocarcinoma cells following DNA transfection.

In test [4] the target is T4, human 5' deiodinase. The settings on record: with or without 0.5 mM PTU; 100 nM 125I-T4, 25 mM DTT, 16 hours. The procedure: T4, T3 and I^- were separated by paper chromatography and identified by staining of chromatographed unlabelled standards. The ^125 I content of the products was quantitated by counting the paper strips in a gamma scintillation counter. All assays were performed in duplicate. Kinetic analyses were performed as previously described (Berry, et al., J. Biol. Chem. 266:14155-14158 (1991)) by drawing double reciprocal plots of deiodination rate vs. substrate concentration. […] Since the enzyme is not pure, all kinetic constants are apparent.

Test [5] deals with T6, Liver Microsomal Human Type I 5'-Deiodinase (Homo sapiens, UniProt P49895).
T6 construct: those of the human liver microsomal enzyme; from tissue; host or cells: human liver microsomes
T6 sequence (P49895 1-249): T1 sequence (P49895 1-249)
Conditions: cited from earlier work.

The next test has as its system T4 to T3 conversion. Conditions: cited from earlier work.
In a further test the target is T7, Type I deiodinase (Rattus norvegicus, UniProt P24389).
T7 sequence (P24389 1-257): T2 sequence (P24389 1-257)
Conditions: cited from earlier work.

Test [6] concerns the target T8, rat 5' deiodinase cysteine mutant (Rattus norvegicus, UniProt P24389, U126C).
T8 sequence (P24389 1-257 U126C): T2 sequence (P24389 1-257) with U126C
The settings on record: cited from earlier work.

Another test addresses T9, 5' deiodinase activity (Rattus norvegicus, UniProt P24389).
T9 construct: host or cells: rat, in vivo
T9 sequence (P24389 1-257): T2 sequence (P24389 1-257)
Conditions: rats; cited from earlier work.

In test [7] the target is T10, Type I iodothyronine 5' deiodinase, TGT (cysteine-126) mutant (Rattus norvegicus, UniProt P24389, U126C).
T10 construct: expressed in transfected cells; host or cells: JEG-3 cells, vector CDM-8 (cell sonicate)
T10 sequence (P24389 1-257 U126C): T2 sequence (P24389 1-257) with U126C
As to the kind of experiment: Sensitivity to gold thioglucose, cysteine mutant (TGT) G21 cDNA, JEG cell sonicates. In kind it is biochemical. The settings on record: for Deiodinase Activity of JEG cell sonicates: 10 mM DTT, 300 nM 125I rT3, 30 min.
Description: as §1

[8] abbreviates: PTU 100 μM, read-out: decrease in BrAcT3 labelling.

Substitutions are numbered along the chain they refer to. “And” between values parts separate entries of the source, which are not always exact repeats. Identical values can stand only once. Like-named read-outs stand apart in the source and are kept apart here. Some results are limits rather than exact numbers.

On to `O[C@H](CS)[C@H](O)CS` (racemic) [DTT, dithiothreitol], for which the Kb in [1] (apparent) came out at 5000 µM.

For `OC[C@H]1O[C@@H](S)[C@H](O)[C@@H](O)[C@@H]1O` [1β-D-Thioglucose], the “effect on enzyme activity” value in test [2] (5 μm) is “no effect”.

In the case of `O=C(CBr)NC(Cc1cc(I)c(Oc2ccc(O)c(I)c2)c(I)c1)C(=O)O` (centres unmarked) [BrAcT3], the “BrAcT3 labelling of the ~28 kDa protein” value at rat 5' deiodinase (excess cold BrAcT3 (364 nM)) and on human 5' deiodinase [3] (excess cold BrAcT3 (364 nM)) was “inhibited” in each case.

For the molecule `CCCc1cc(=O)[nH]c(=S)[nH]1` [PTU, propylthiouracil], the inhibition at 0.5 µM against Type I 5' deiodinase (0.5 μM PTU) is > 50%. The mode of inhibition entry at Type I 5' deiodinase was “competitive inhibitor of DTT”. For the same molecule, the Ki in test [1] (Ki (PTU · DTT), competitive with respect to DTT, apparent) is 0.014 µM; in test [1] (Ki (PTU · rT3), 10 mM DTT, uncompetitive inhibitor of rT3 deiodination, apparent), 0.17 µM; in [5] (read-out: Ki (PTU · DTT)) it was 0.1 µM; in test [5] (read-out: Ki (PTU · rT3), 5 mM DTT) it was 0.28 µM. In addition, the “T4 to T3 conversion, sensitivity to PTU” value at human 5' deiodinase [4] is recorded as “PTU-sensitive”. The inhibition at 100 µM on rat 5' deiodinase (setting [8]) and on human 5' deiodinase [3] (setting [8]) was 35 to 40% throughout. Also, the “131I release from T4” value in the test with T4 to T3 conversion (100 mg, euthyroid subjects) was “inhibition”. In the test with T4 to T3 conversion (hyperthyroid patients), the “T4 to T3 conversion” value is “dose-related inhibition”.

For the molecule `N[C@@H](Cc1cc(I)c(Oc2cc(I)c(O)c(I)c2)c(I)c1)C(=O)O` [T4, thyroxine], the mode of inhibition entry on Type I 5' deiodinase is reported as “competitive inhibitor of rT3 deiodination”. The molecule further came in with a Ki in test [1] of 6.2 µM. On rat 5' deiodinase (T4 30 μM, read-out: reduction of BrAcT3 labelling), the inhibition at 30 µM turned out to be 67%. Moreover, the “BrAcT3 labelling of the ~28 kDa protein” value at human 5' deiodinase [3] (T4 30 μM) is “does not inhibit”.

`N[C@@H](Cc1ccc(Oc2cc(I)c(O)c(I)c2)c(I)c1)C(=O)O` [rT3, 3,3',5'-triiodothyronine]: the “Vmax (rT3)” value is 63.2 ± 16.4 pmol/min/mg and 63.2 pmol/min/mg in test [1] (10 mM DTT); 128 to 242 pmol/min/mg in test [5] (5 mM DTT). Also, the “BrAcT3 labelling of the ~28 kDa protein” value on rat 5' deiodinase (rT3 3 μM and 10 μM) is reported as “inhibited”; at human 5' deiodinase [3] (rT3 3 μM and 10 μM) it was “inhibited”. The “Vmax/Km ratio for rT3 higher than for T4” value at Type I deiodinase is given as 1000 fold. Besides, the “apparent Km of the cysteine mutant higher than wild type” value in test [6] is recorded as 10 fold.

Regarding gold, the “5' deiodinase activity after administration” value at 5' deiodinase activity is “Inhibition”.

The Inhibition is the share of the control response that was lost under treatment. On to gold thioglucose [GTG], for which the Inhibition is 0% in test [2] (GTG 1 nM); 43% in [2] (GTG 10 nM); ~ 50% in [2] (GTG 10 nM, listed as gold thioglucose); 95% in [2] (GTG 100 nM); 0% in [7] (GTG 10 nM); 13% in [7] (GTG 100 nM). Further, the “Deiodinase Activity of JEG cell sonicates” value in test [2] (GTG 1 nM) is reported as 7.0 pmol rT3 min^-1 mg protein^-1; in test [2] (GTG 10 nM), 4.0 pmol rT3 min^-1 mg protein^-1; in test [2] (GTG 100 nM), 0.95 pmol rT3 min^-1 mg protein^-1; in [7] (GTG 10 nM) it was 1.3 pmol rT3 min^-1 mg protein^-1; in test [7] (GTG 100 nM), 1.1 pmol rT3 min^-1 mg protein^-1. Besides, in test [7], the “sensitivity to inhibition compared with the native enzyme” value is recorded as “much less sensitive”. Also, the Ki in test [1] (read-out: Ki (GTG · rT3), 10 mM DTT, competitive, apparent) was found to be 0.0047 µM. The “BrAcT3 labelling of the ~28 kDa protein” value at rat 5' deiodinase (100 nM gold thioglucose) and on human 5' deiodinase [3] (100 nM gold thioglucose) was “inhibited” in each case.
